# Source: article PMC7028039, “Convergent evolution of the UbiA prenyltransferase family underlies the independent acquisition of furanocoumarins in plants” (The New Phytologist, 2019)
# Assays:
# [1] = tested on: CC(C)=CCOP(=O)(O)OP(=O)(O)O; experiment: cells, lysate or membranes; conditions: co-substrate umbelliferone, Mg2+, 28 °C
# FcPT1b = target: T1, FcPT1b (Ficus carica, UniProt A0A6S4PSN9); experiment: microsomal prenyltransferase assay, HPLC and LC-MS2 product identification; format: biochemical; conditions: 50 µM umbelliferone, 200 µM DMAPP, 10 mM MgCl2; product demethylsuberosin (DMS)
# T1 construct: full CDS with transit peptide, pGWB502 (35S promoter), transient expression in Nicotiana benthamiana leaves, microsomes
# T1 sequence (A0A6S4PSN9 1-422): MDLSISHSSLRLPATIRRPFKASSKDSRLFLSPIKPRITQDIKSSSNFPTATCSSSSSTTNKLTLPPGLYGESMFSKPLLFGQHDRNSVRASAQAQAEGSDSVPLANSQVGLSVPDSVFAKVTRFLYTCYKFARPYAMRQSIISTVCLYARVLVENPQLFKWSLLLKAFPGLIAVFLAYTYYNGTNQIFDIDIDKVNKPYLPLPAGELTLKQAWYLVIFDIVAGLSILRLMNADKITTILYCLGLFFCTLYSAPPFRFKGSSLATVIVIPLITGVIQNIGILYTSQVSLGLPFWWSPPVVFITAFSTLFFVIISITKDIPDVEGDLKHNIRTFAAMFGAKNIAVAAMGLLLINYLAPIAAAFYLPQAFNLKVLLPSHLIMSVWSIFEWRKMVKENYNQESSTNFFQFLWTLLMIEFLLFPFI
# FcPT1a = FcPT1a (Ficus carica, UniProt A0A6S4Q0J8); conditions: read-out: apparent Km; co-substrate DMAPP; Mg2+; 28 °C
# Description: microsomal prenyltransferase assay, HPLC-PDA, nonlinear fit on FcPT1a | The apparent K m values of FcPT1a for umbelliferone and DMAPP were determined
Molecule,Km [1] [µM],"microsomal prenyltransferase assay, HPLC and LC-MS2 product identification (FcPT1b)",Km (FcPT1a) [µM]
FcPT1a (Ficus carica),17 ± 1,–,–
O=c1ccc2ccc(O)cc2o1 [umbelliferone],–,recombinant FcPT1a/b proteins yielded an enzymatic reaction product concomitant with the consumption of umbelliferone,35 ± 4
CC(C)=CCOP(=O)(O)OP(=O)(O)O [dimethylallyl diphosphate],–,UDT reaction mixtures composed of microsomes containing recombinant FcPT1a/b proteins yielded an enzymatic reaction product,–
